US20070099941A1, “N-arylalkyl-thienopyrimidin-4-amines and analogs as activators of caspases and inducers of apoptosis and the use thereof” (Cytovia, Inc., priority 2005, published 2007)

How the values were obtained:
[1] = test system: human breast cancer cell line T-47D; experiment: Caspase cascade activation assay in T-47D cells; type: cell-based; conditions: T47D, 24 h or 48 h incubation, read-out: Caspase Activation Potency EC50 T-47D
Procedure: (§1) Human breast cancer cell lines T-47D and human lung cancer cell line H1299 were grown according to media component mixtures designated by American Type Culture Collection+10% FCS (Invitrogen Corporation), in a 5% CO2-95% humidity incubator at 37° C. T-47D and H1299 cells were maintained at a cell density between 50 and 80% confluency at a cell density of 0.1 to 0.6×10^6 cells/mL. Cells were harvested at 600×g and resuspended at 0.65×10^6 cells/mL into appropriate media+10% FCS. An aliquot of 22.5 μL of cells was added to a well of a 384-well microtiter plate containing 2.5 μL of a 10% DMSO in RPMI-1640 media solution containing 0.16 to 100 μM of N-(3,4-methylenedioxybenzyl)-6-phenylthieno[3,2-d]pyrimidin-4-amine or other test compound (0.016 to 10 μM final). An aliquot of 22.5 μL of cells was added to a well of a 384-well microtiter plate containing 2.5 μL of a 10% DMSO in RPMI-1640 media solution without test compound as the control sample. The samples were mixed by agitation and then incubated at 37° C. for 24 h or 48 h in a 5% CO2-95% humidity incubator. After incubation, the samples were removed from the incubator and 25 μL of a solution containing 14 μM of N-(Ac-DEVD)-N′-ethoxycarbonyl-R110 (SEQ ID No.:1) fluorogenic substrate (Cytovia, Inc.; WO99/18856), 20% sucrose (Sigma), 20 mM DTT (Sigma), 200 mM NaCl (Sigma), 40 mM Na PIPES buffer pH 7.2 (Sigma), and 500 μg/mL lysolecithin (Calbiochem) was added. The samples were mixed by agitation and incubated at room temperature. Using a fluorescent plate reader (Model SPECTRAfluor Plus, Tecan), an initial reading (T=0) was made approximately 1-2 min after addition of the substrate solution, employing excitation at 485 nm and emission at 530 nm, to determine the background fluorescence of the control sample. After the 3 h incubation, the samples were read for fluorescence as above (T=3 h).
(§2) The Relative Florescence Unit values (RFU) were used to calculate the sample readings as follows: RFU(T=3h)−Control RFU(T=0)=Net RFU(T=3h)
(§3) The activity of caspase cascade activation was determined by the ratio of the net RFU value for N-(3,4-methylenedioxybenzyl)-6-phenylthieno[3,2-d]pyrimidin-4-amine (Example A) or other test compound to that of control samples. The EC50 (nM) was determined by a sigmoidal dose-response calculation (Prism 3.0, GraphPad Software Inc.).

[2] = test system: human lung cancer cell line H1299; experiment: Caspase cascade activation assay in H1299 cells; type: cell-based; conditions: NCI-H1299, 24 h or 48 h incubation, read-out: Caspase Activation Potency EC50 H1299
Procedure: as §1, §2, §3

| EC50 [1] [µM] | EC50 [2] [µM] | Compound |
| --- | --- | --- |
| > 10 | > 10 | Oc1ccc(CNc2ncnc3cc(Br)sc23)cc1 [Example 24, N-(4-Hydroxybenzyl)-6-bromothieno[3,2-d]-pyrimidin-4-amine] |
| 4.32 | 5.1 | c1ccc(-c2cc3ncnc(NCc4ccc5c(c4)OCO5)c3s2)nc1 [Example 6, N-(3,4-Methylenedioxybenzyl)-6-(pyridin-2-yl)thieno[3,2-d]pyrimidin-4-amine] |
| > 10 | > 10 | Cc1c(-c2ccccc2)sc2c(NCc3ccc4c(c3)OCO4)ncnc12 [Example 8, N-(3,4-Methylenedioxybenzyl)-7-methyl-6-phenylthieno[3,2-d]pyrimidin-4-amine] |
| 2.3 | 2.57 | COc1ccc(OC)c(CNc2ncnc3cc(I)sc23)c1 [Example 18, N-(2,5-Dimethoxybenzyl)-6-iodothieno[3,2-d]pyrimidin-4-amine] |
| > 10 | > 10 | Cc1nc(NCc2ccc3c(c2)OCO3)c2sc(Br)cc2n1 [Example 21, N-(3,4-Methylenedioxybenzyl)-6-bromo-2-methylthieno[3,2-d]pyrimidin-4-amine] |
| 2.8 | 2.79 | c1nc(NCc2ccc3c(c2)OCO3)c2sc(-c3ccoc3)cc2n1 [Example 12, N-(3,4-Methylenedioxybenzyl)-6-(furan-3-yl)thieno[3,2-d]pyrimidin-4-amine] |
| 1.29 | 2.87 | COc1ccc(CNc2ncnc3cc(I)sc23)c(OC)c1 [Example 16, N-(2,4-Dimethoxybenzyl)-6-iodothieno[3,2-d]pyrimidin-4-amine] |
| > 10 | > 10 | Oc1ccc(CNc2ncnc3cc(-c4cccnc4)sc23)cc1 [Example 25, N-(4-Hydroxybenzyl)-6-(pyridin-3-yl)thieno[3,2-d]-pyrimidin-4-amine] |
| > 10 | > 10 | c1nc(NCc2ccc3c(c2)OCO3)c2sccc2n1 [Example 1, N-(3,4-Methylenedioxybenzyl)-thieno[3,2-d]pyrimidin-4-amine] |
| > 10 | > 10 | COc1cc(OC)c(CNc2ncnc3cc(I)sc23)c(OC)c1 [Example 17, N-(2,4,6-Trimethoxybenzyl)-6-iodothieno[3,2-d]pyrimidin-4-amine] |
| 2.43 | 2.39 | c1coc(-c2cc3ncnc(NCc4ccc5c(c4)OCO5)c3s2)c1 [Example 4, N-(3,4-Methylenedioxybenzyl)-6-(furan-2-yl)thieno[3,2-d]pyrimidin-4-amine] |
| > 10 | > 10 | COc1ccc(CNc2ncnc3cc(I)sc23)cc1 [Example 9, N-(4-Methoxybenzyl)-6-iodothieno[3,2-d]pyrimidin-4-amine] |
| > 10 | > 10 | COc1ccc(CNc2ncnc3cc(-c4cccnc4)sc23)cc1OC [Example 15, N-(3,4-Dimethoxybenzyl)-6-(pyridin-3-yl)thieno[3,2-d]pyrimidin-4-amine] |
| > 10 | > 10 | Brc1cc2ncnc(NCc3ccc4c(c3)OCO4)c2s1 [Example 11, N-(3,4-Methylenedioxybenzyl)-6-bromothieno[3,2-d]pyrimidin-4-amine] |
| 0.147 | 0.157 | CN(Cc1ccc2c(c1)OCO2)c1ncnc2cc(-c3cccnc3)sc12 [Example 22, N-(3,4-Methylenedioxybenzyl)-N-methyl-6-(pyridin-3-yl)thieno[3,2-d]pyrimidin-4-amine] |
| > 10 | > 10 | Cc1nc(NCc2ccc3c(c2)OCO3)c2sc(-c3cccnc3)cc2n1 [Example 23, N-(3,4-Methylenedioxybenzyl)-2-methyl-6-(pyridin-3-yl)thieno[3,2-d]pyrimidin-4-amine] |
| 4.3 | 5.08 | COc1ccc(CNc2ncnc3cc(I)sc23)cc1OC [Example 14, N-(3,4-Dimethoxybenzyl)-6-iodothieno[3,2-d]pyrimidin-4-amine] |
| 5.39 | 5.43 | c1ncc(-c2cc3ncnc(NCc4ccc5c(c4)OCO5)c3s2)cn1 [Example 13, N-(3,4-Methylenedioxybenzyl)-6-(pyrimidin-5-yl)thieno[3,2-d]pyrimidin-4-amine] |
| > 10 | > 10 | c1cc(-c2cc3ncnc(NCc4ccc5c(c4)OCO5)c3s2)ccn1 [Example 2, N-(3,4-Methylenedioxybenzyl)-6-(pyridin-4-yl)thieno[3,2-d]pyrimidin-4-amine] |
| 5.13 | 2.89 | COc1cc(OC)c(CNc2ncnc3cc(-c4cccnc4)sc23)c(OC)c1 [Example 19, N-(2,4,6-Trimethoxybenzyl)-6-(pyridin-3-yl)thieno[3,2-d]pyrimidin-4-amine] |
| > 10 | > 10 | Cc1c(I)sc2c(NCc3ccc4c(c3)OCO4)ncnc12 [Example 7, N-(3,4-Methylenedioxybenzyl)-6-iodo-7-methylthieno[3,2-d]pyrimidin-4-amine] |
| 1.4 | 2.68 | COc1ccc(CNc2ncnc3cc(-c4ccccc4)sc23)cc1 [Example 10, N-(4-Methoxybenzyl)-6-phenylthieno[3,2-d]pyrimidin-4-amine] |
| > 10 | > 10 | COc1ccc(OC)c(CNc2ncnc3cc(-c4cccnc4)sc23)c1 [Example 20, N-(2,5-Dimethoxybenzyl)-6-(pyridin-3-yl)thieno[3,2-d]pyrimidin-4-amine] |
